The term TGI denotes the concentration giving total growth inhibition. Read a low TGI as more potent growth arrest. Broadly, the GI50 is the concentration giving 50% growth inhibition.

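Interpolation was linear, between the two tested concentrations surrounding the appropriate level; five concentrations were tested over 48 hours in 96-well plates. Here, GI50 denotes the concentration required for 50% inhibition of growth. TGI: concentration producing complete growth inhibition.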

Consider three compounds from PubChem BioAssay (NCI).

Among the test systems are DU-145 prostate; HS 578T breast; MDA-MB-435; NCI-H460 lung; SF-268 CNS; SK-MEL-2 melanoma; SK-MEL-28 melanoma; SN12C renal; TK-10 renal; MCF7 breast; SF-539 CNS; SK-OV-3 ovarian.
Holding throughout (test): DTP human tumour cell line panel, 48 h

Turning to `COc1ccc(CCCC(=O)O)c(C)c1`, the TGI in the assay with DU-145 prostate was 56.6 µM; with HS 578T breast, more than 100 µM; in the assay on MDA-MB-435, more than 100 µM; in the assay with NCI-H460 lung it was more than 100 µM; in the assay on SF-268 CNS, more than 100 µM; in the assay on SK-MEL-2 melanoma, more than 100 µM. Further, the concentration for total growth inhibition (TGI) with SK-MEL-28 melanoma, in the assay with SN12C renal and in the assay with TK-10 renal was more than 100 µM each time.
Regarding `CCOC(=O)c1c(C)[nH]c(/C=C2\N=C(c3ccc[nH]3)C=C2OC)c1C`, the GI50 with DU-145 prostate was 0.0372 µM; in the assay on HS 578T breast, 0.0577 µM; in the assay on MCF7 breast it was 0.0469 µM; with MDA-MB-435 it was 0.0186 µM; in the assay on SF-539 CNS it was 0.0606 µM; with SK-OV-3 ovarian it was 0.413 µM. For the same compound, the GI50 in the assay on TK-10 renal is 0.0307 µM. Moreover, the TGI in the assay on DU-145 prostate worked out at 1.6 µM; with HS 578T breast, 0.925 µM; with MCF7 breast, 1.3 µM; with MDA-MB-435, 1.15 µM; in the assay with SF-539 CNS it was 1.28 µM; in the assay on SK-OV-3 ovarian, 3.71 µM. Moreover, the TGI in the assay with TK-10 renal was determined as 1.75 µM.
Turning to `NC(Cc1c[nH]c2ccccc12)C(=O)O` (stereo unspecified), the TGI in the assay on MCF7 breast, in the assay with NCI-H460 lung, with SF-268 CNS, in the assay with SF-539 CNS, with SK-MEL-2 melanoma and with SK-MEL-28 melanoma was more than 300 µM throughout. Besides, the TGI in the assay on SK-OV-3 ovarian is more than 300 µM; in the assay with SN12C renal, more than 13.9 µM.
